From ChEMBL document CHEMBL1201862, “PubChem BioAssay data set” (2004) come the findings set out here.

Activity calls are given as the source filed them.

A short description of assay [1]: Dd2 parasite growth inhibition in erythrocytes – SYBR Green, dry powder samples, set 9, dose response (AID 1159568). It is filed as functional, cell-based.
Assay [2] deals with Potassium channel subfamily K member 9 (Homo sapiens, UniProt Q9NPC2). Kind of assay: KCNK9 flux blockade, concentration-response – cell-based, FluxOR thallium flux, selectivity assay for TASK1 inhibitor project, SAR follow-up (AID 652211).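 Note: potency is for inhibitors of the channel.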 Type of assay: functional.
The target of assay [3] is Voltage-gated inwardly rectifying potassium channel KCNH2 (Homo sapiens, UniProt Q12809). Description: off-target hERG block by TASK1 inhibitor candidates – FluxOR thallium flux, concentration-response, CHO cells, selectivity assay for TASK1 inhibitor project, SAR follow-up (AID 652194). Type of assay: functional, cell-based. A general note: Block of hERG is tested as a sign of cardiac risk.

The target in assay [4] is Potassium channel subfamily K member 3 (Homo sapiens, UniProt O14649). Description: inhibition of human KCNK3 channel flux – CHO cells, FluxOR thallium flux, SAR follow-up (AID 652212). Type of assay: functional.
A short description of assay [5]: toxicity to HepG2 liver cells – cell-based, plate reader, dry powder, set 6, cytotoxicity control, dose response (AID 743311). Type of assay: functional.
Assay [6] can be described thus: cells. Particulars: HEK293.
The nature of assay [7]: blockade of melanocortin 4 receptor signaling – cell-based, plate reader, cherry pick, counter-screen for LGR2 antagonist project, dose response (AID 743444).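 Note: transfected HEK 293 cells stimulated with alpha-MSH peptide; potency of inhibitors of the alpha-MSH evoked signal.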 Type of assay: functional. (A counterscreen serves to expose hits that act by an unwanted route or on another target.)
The nature of assay [8]: inhibition of bursicon-driven LGR2 cAMP signaling – cell-based, HEK293, CRE-luciferase reporter, cherry pick, dose response (AID 743342). Type of assay: functional. (In general: A reporter such as luciferase makes a cellular process visible.)
The nature of assay [9]: viability loss in HEK293 cells – cell-based, plate reader, cherry-picked samples, cytotoxicity control, dose response (AID 743446). Type of assay: functional.
Assay [10] in a line: A549 cell cytotoxicity, dose response, cytotoxicity control, plate reader, cherry-pick, antagonist series (AID 743412). Type of assay: functional, cell-based.
Assay [11] is described as follows: toxicity to human hepatoma HepG2 cells – cell-based, cherry-picked samples, cytotoxicity control, dose response (AID 1159577). It is filed as functional.
Assay [12] can be described thus: P. falciparum Dd2 growth inhibitors, dose response, SYBR Green, cherry-picked samples (AID 1159567). It is filed as functional, cell-based.
For assay [13], the target named is Disintegrin and metalloproteinase domain-containing protein 17 (Homo sapiens, UniProt P78536). Description: exosite inhibitors of ADAM17, dose response, biochemical (AID 743260).
The nature of assay [14]: inhibition of ADAM10 peptide cleavage – biochemical, FRET peptide substrate, recombinant human ADAM10, selectivity assay for ADAM17 exosite inhibitor project, dose response (AID 743259).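 Note: ADAM10 enzyme cleaving a FRET peptide substrate.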
Assay [15] is described as follows: Luminescence Cell-Based Dose Confirmation HTS to Identify Inhibitors of Platelet Dense Granule Release. [Related pubchem assays: 1663 (Primary HTS), 1678 (Summary of Project)]. Type of assay: functional.
Assay [16] deals with Luciferin 4-monooxygenase (Photinus pyralis, UniProt P08659). Description: inhibition of purified Photinus pyralis luciferase – biochemical, luminescence, dose response (AID 1891).
Assay [17] can be described thus: Late stage results for the probe development effort to identify inhibitors of Plasmodium falciparum gametocytes: Luminescence-based cell-based high throughput dose response assay to identify inhibitors of viability of late stage Plasmodium falciparum gametocytes. It is filed as functional.
The next assay has as its target Paired box protein Pax-8 (Homo sapiens, UniProt Q06710). Kind of assay: PAX8 transcriptional activity inhibition in RMG-I – RMG-I cells, luciferase, cherry-pick, dose response (AID 687027).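 Note: luciferase reporter driven by Pax8 target thyroperoxidase promoter measured by SteadyGlo luminescence.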 It is filed as functional, cell-based.
The nature of assay [18]: OVCAR-3 cell viability loss – plate reader, dry powder samples, PAX8 inhibitor project, dose response (AID 743044). Type of assay: functional, cell-based.
Assay [19] addresses Oxysterols receptor LXR-beta (Homo sapiens, UniProt P55055). It is filed as functional, cell-based.
The nature of assay [20]: cells.
The nature of assay [21]: cells. The following applies: HEK293. The source holds these as a separate data set.

Sequence of Voltage-gated inwardly rectifying potassium channel KCNH2 (Q12809 whole entry): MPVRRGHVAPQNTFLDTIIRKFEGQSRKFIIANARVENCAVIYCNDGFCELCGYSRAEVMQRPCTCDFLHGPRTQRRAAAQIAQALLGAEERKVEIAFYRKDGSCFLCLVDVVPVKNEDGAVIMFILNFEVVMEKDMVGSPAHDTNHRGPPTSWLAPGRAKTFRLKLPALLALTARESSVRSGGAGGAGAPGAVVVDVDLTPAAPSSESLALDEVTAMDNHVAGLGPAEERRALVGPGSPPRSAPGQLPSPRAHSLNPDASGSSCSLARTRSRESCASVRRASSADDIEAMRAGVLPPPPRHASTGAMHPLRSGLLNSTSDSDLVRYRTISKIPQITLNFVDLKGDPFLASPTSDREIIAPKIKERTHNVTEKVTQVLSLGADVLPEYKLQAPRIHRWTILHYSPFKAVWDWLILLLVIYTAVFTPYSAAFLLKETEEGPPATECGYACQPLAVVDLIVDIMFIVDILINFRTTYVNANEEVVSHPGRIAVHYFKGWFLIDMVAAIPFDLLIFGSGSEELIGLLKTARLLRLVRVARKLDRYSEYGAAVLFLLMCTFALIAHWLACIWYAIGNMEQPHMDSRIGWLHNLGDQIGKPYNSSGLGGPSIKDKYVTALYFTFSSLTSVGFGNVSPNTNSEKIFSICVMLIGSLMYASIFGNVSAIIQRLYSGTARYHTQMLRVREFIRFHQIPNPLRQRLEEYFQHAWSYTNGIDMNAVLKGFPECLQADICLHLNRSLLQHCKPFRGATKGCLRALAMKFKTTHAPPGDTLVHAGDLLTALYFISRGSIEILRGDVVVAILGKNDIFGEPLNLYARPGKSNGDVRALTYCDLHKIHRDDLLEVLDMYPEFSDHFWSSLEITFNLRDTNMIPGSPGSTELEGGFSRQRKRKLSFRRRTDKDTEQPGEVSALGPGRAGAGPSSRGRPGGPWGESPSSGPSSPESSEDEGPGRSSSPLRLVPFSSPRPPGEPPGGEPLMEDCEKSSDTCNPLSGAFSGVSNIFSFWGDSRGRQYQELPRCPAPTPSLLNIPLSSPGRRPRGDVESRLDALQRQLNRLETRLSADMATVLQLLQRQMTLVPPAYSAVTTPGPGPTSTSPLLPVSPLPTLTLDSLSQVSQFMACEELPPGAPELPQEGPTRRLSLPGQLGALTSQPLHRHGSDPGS
Sequence of Potassium channel subfamily K member 3 (O14649 whole entry): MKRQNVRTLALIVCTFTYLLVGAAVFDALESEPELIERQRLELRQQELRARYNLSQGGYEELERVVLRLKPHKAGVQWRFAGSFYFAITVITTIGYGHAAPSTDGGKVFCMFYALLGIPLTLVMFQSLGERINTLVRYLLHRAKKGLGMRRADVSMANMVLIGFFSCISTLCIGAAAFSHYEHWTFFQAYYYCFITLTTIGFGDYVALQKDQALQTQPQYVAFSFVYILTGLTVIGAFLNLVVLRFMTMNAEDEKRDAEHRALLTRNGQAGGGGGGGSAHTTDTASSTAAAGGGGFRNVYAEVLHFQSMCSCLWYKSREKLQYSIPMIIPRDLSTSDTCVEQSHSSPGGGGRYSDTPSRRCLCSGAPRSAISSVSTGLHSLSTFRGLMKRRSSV
Sequence of Luciferin 4-monooxygenase (P08659 whole entry): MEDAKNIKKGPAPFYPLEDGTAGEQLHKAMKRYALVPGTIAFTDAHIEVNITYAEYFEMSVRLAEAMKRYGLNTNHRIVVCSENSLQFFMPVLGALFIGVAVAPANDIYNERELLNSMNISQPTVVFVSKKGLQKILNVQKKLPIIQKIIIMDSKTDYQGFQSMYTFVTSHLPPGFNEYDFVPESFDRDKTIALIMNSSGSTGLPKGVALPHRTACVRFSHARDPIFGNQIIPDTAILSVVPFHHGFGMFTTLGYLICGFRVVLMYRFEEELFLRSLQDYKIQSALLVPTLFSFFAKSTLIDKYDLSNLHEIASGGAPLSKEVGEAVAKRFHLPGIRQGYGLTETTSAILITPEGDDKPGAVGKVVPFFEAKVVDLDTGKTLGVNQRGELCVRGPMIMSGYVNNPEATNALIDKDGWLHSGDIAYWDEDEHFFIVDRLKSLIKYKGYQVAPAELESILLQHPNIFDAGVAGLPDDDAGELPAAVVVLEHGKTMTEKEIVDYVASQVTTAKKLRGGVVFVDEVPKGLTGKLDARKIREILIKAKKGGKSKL
Sequence of Paired box protein Pax-8 (Q06710 whole entry): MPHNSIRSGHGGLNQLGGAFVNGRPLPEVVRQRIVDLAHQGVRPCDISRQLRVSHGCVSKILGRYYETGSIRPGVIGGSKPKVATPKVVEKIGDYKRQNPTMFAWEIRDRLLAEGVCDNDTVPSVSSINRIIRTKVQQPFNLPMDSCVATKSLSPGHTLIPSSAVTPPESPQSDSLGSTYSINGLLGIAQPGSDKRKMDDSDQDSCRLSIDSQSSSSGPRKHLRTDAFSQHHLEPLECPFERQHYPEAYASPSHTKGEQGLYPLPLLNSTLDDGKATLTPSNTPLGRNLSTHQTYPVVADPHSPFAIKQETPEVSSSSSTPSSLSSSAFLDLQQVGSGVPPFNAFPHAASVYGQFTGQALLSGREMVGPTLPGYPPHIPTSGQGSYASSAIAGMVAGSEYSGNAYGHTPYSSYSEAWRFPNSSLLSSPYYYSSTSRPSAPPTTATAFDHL
Sequence of Potassium channel subfamily K member 9 (Q9NPC2 whole entry): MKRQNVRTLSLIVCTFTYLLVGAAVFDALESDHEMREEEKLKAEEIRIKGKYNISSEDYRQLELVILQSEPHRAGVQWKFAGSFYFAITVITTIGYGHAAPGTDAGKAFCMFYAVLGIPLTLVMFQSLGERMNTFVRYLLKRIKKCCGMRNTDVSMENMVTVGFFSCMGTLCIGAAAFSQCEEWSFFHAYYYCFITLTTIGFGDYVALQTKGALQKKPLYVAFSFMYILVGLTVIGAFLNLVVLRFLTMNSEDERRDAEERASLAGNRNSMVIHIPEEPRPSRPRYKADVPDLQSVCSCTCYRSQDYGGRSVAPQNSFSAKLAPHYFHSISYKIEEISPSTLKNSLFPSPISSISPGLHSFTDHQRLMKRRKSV
Sequence of Oxysterols receptor LXR-beta (P55055 whole entry): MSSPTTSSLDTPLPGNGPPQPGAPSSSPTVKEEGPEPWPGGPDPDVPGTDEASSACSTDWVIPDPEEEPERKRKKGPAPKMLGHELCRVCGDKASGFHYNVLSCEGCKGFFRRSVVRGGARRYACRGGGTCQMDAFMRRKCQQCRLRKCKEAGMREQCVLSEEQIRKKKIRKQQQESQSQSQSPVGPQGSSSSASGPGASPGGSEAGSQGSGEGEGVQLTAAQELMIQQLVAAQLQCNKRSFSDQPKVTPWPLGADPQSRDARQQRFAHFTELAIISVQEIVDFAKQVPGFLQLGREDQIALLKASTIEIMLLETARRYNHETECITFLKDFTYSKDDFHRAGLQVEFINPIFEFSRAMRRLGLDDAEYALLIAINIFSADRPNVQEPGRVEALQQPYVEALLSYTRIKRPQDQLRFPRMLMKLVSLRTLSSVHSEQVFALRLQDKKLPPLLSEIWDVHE
Sequence of Disintegrin and metalloproteinase domain-containing protein 17 (P78536 whole entry, the tested form may be a part): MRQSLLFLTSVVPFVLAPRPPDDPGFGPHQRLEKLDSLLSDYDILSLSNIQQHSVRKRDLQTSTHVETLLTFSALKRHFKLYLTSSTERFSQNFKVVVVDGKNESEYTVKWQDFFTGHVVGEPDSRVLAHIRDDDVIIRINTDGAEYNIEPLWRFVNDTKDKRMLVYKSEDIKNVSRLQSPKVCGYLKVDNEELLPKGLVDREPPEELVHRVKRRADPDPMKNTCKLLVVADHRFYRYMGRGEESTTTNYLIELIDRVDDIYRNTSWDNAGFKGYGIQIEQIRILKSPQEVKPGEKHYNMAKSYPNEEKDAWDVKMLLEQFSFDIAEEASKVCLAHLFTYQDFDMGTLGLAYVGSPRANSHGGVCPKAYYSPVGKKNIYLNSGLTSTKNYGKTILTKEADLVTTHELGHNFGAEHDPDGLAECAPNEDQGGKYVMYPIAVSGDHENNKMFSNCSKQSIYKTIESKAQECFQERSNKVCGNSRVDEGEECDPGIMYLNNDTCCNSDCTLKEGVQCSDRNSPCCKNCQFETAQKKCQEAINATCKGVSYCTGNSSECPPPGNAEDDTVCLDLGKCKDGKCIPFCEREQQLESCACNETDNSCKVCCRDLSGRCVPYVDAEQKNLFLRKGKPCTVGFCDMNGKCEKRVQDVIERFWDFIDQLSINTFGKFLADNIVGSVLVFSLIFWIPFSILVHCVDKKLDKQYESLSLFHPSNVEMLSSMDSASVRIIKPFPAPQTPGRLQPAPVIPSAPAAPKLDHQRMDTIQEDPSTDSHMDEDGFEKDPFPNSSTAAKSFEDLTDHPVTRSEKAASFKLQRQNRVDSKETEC

As a reminder, the AC50 is the concentration giving half of the maximal activity seen. As to `C(=C\c1ccc([C@H]2[C@@H]3CN(Cc4nccs4)C[C@H]2N3)cc1)/c1ccccc1`, in assay [1], the AC50 is 11.2 µM (active).
Usually IC50 stands for the point on the concentration scale where inhibition reaches its midpoint. On to `COc1ccc(CC(=O)NCc2ccccc2-c2ccccc2C(=O)NCc2ccc(F)cc2F)cc1`, for which the figures for the IC50 in assay [2], in assay [3] and in assay [4] were 3.2 µM (active), 36.7 µM (active) and 0.115 µM (active), respectively.
For `Cc1ccc(C(C)C)c(OCCn2c(N)nc3ccccc32)c1`, the half-maximal activity concentration (AC50) in assay [5] was 4.5 µM (active); in “cells [6]” it was 19.1 µM (active).
As to `COc1ccc(S(=O)(=O)N(C)C[C@@H]2OCCCC[C@H](C)Oc3ccc(NS(=O)(=O)c4ccc(F)cc4)cc3C(=O)N([C@@H](C)CO)C[C@@H]2C)cc1`, the AC50 in assay [7] was 42.7 µM (active); in [8] it was 58.8 µM (active); in [9], > 52 µM (inactive); in [10] it was 26 µM (active).
As for `Cc1cccc(-c2ccc([C@@H]3[C@@H]4CN(C(=O)C5CCCC5)C[C@H]3N4)cc2)c1`, the AC50 in assay [11] was 10.7 µM (active); in assay [12], 4.39 µM (active).
In general, EC50 refers to the concentration needed to bring the measured effect to its halfway point. `Cc1ccccc1-c1noc(-c2ccc(O)cc2)n1`: the IC50 is > 69.5 µM (inactive) in [13] and 48.8 µM (inactive) in [14]. Moreover, the EC50 was 0.623 µM (active) in assay [15] and 0.122 µM (active) in assay [16].
In the case of `O=C(Nc1nccs1)c1cn(-c2ccccc2)nc1-c1cccnc1`, the IC50 in assay [17] was > 74.4 µM (inactive).
In the case of `Cc1cccc(S(=O)(=O)N2CC[C@@H]3[C@H](CO)N(C)c4ccc(-c5ccc(C#N)cc5)cc4[C@@H]32)c1`, the results for the AC50 (at Paired box protein Pax-8; in assay [18]) were 10.1 µM (active) and 67.7 µM (active), respectively.
In the case of `CCOC(=O)c1s/c(=N\C(=O)c2cccs2)n(C)c1C`, the EC50 (in [19]; in the assay “cells [20]”) was > 67.5 µM (inactive) throughout.
`CNC(=O)c1ccc(NC(=O)c2cccc(C(F)(F)F)c2)cc1`: the half-maximal activity concentration (AC50) in “cells [21]” was 49.8 µM (active).
